Source: ChEMBL document CHEMBL3286318, “Design and synthesis of quinolinopropellane derivatives with selective δ opioid receptor agonism” (Bioorg Med Chem Lett, 2014)

Columns and labels:
[1] = target: T1, Delta-type opioid receptor (Homo sapiens, UniProt P41143); assay: Displacement of [3H]DPDPE from delta-opioid receptor (unknown origin)
[2] = target: T2, Kappa-type opioid receptor (Homo sapiens, UniProt P41145); assay: Displacement of [3H]U-69593 from kappa-opioid receptor (unknown origin)
Mu-type opioid receptor [3] = target: T3, Mu-type opioid receptor (Homo sapiens, UniProt P35372); assay: Displacement of [3H]DAMGO from mu-opioid receptor (unknown origin)
Homo sapiens [4] = species: Homo sapiens; assay: Selectivity ratio Ki for kappa-opioid receptor (unknown origin) to Ki for delta-opioid receptor (unknown origin)
Homo sapiens [5] = species: Homo sapiens; assay: Selectivity ratio Ki for mu-opioid receptor (unknown origin) to Ki for delta-opioid receptor (unknown origin)
[6] = target: T2, Kappa-type opioid receptor; assay: Agonist activity at kappa-opioid receptor (unknown origin) by [35S]GTPgammaS binding assay
Mu-type opioid receptor [7] = target: T3, Mu-type opioid receptor; assay: Agonist activity at mu-opioid receptor (unknown origin) by [35S]GTPgammaS binding assay; format: functional
[8] = target: T1, Delta-type opioid receptor; assay: Agonist activity at delta-opioid receptor (unknown origin) by [35S]GTPgammaS binding assay; format: functional

T2 sequence (P41145 whole entry): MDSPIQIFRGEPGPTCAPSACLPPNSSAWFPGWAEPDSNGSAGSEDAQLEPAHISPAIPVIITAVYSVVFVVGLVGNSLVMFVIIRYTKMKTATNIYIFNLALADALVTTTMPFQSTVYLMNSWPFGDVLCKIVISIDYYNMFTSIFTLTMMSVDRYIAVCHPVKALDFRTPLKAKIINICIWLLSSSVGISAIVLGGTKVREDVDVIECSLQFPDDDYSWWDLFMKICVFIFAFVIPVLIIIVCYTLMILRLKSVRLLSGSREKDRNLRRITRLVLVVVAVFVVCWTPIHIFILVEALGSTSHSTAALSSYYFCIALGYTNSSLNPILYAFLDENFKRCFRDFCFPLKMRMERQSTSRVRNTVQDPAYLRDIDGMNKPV
T1 sequence (P41143 whole entry): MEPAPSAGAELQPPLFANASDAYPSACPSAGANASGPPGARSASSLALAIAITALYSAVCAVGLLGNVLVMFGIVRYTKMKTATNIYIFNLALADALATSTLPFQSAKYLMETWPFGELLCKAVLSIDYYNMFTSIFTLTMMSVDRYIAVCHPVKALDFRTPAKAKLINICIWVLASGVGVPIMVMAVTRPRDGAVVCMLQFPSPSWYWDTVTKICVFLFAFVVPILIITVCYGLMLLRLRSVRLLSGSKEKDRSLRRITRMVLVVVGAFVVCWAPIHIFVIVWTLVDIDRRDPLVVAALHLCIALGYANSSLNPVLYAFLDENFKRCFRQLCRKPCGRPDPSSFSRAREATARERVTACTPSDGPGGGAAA
T3 sequence (P35372 whole entry): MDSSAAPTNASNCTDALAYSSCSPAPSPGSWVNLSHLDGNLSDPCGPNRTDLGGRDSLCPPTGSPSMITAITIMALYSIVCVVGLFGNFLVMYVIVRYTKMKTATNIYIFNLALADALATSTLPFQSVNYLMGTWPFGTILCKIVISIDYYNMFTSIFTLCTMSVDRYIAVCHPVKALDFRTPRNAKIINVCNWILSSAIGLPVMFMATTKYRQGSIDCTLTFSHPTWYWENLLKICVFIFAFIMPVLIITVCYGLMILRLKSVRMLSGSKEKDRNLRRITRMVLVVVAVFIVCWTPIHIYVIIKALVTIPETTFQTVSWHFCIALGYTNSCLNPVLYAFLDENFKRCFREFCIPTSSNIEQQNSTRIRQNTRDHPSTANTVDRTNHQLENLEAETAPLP

| SMILES | Ki [1] [nM] | Ki [2] [nM] | Ki (Mu-type opioid receptor [3]) [nM] | Ratio Ki (Homo sapiens [4]) | Ratio Ki (Homo sapiens [5]) | EC50 [6] [nM] | EC50 (Mu-type opioid receptor [7]) [nM] | Emax (Mu-type opioid receptor [7]) [%] | EC50 [8] [nM] | Emax [8] [%] |
| --- | --- | --- | --- | --- | --- | --- | --- | --- | --- | --- |
| CN1CC[C@]23Cc4nc5ccccc5cc4C[C@]2(Cc2ccc(O)cc23)C1 | 1.88 | 195 | 3.06 | 104 | 1.63 |  |  |  |  |  |
| Oc1ccc2c(c1)[C@]13CCN(Cc4ccccc4)C[C@@]1(C2)Cc1cc2ccccc2nc1C3 | 31.6 | 594 | 76.3 | 18.8 | 2.42 |  |  |  |  |  |
| Oc1ccc2c(c1)[C@]13CCN(CC4CC4)C[C@@]1(C2)Cc1cc2ccccc2nc1C3 | 0.941 | 84.6 | 112 | 89.9 | 119 | 836 | 197 | 56 | 2.5 | 88 |
| Oc1ccc2c(c1)[C@]13CCN(CC4(O)CC4)C[C@@]1(C2)Cc1cc2ccccc2nc1C3 | 1.1 | 879 | 415 | 801 | 378 |  |  |  |  |  |
| O=C1CC[C@@]23Cc4ccc(O)cc4[C@@]2(CCN(CC2CC2)C3)C1 | 448 | 17.4 | 58.2 |  |  |  |  |  |  |  |
